{
  "source": "paper PMC2895947",
  "about": "(Neuropsychopharmacology : official publication of the …, 2010)",
  "key": {"CB1 receptor [1]": {"biological_target": "T1, CB1 receptor (Mus musculus, UniProt P47746)", "T1 sequence (P47746 whole entry)": "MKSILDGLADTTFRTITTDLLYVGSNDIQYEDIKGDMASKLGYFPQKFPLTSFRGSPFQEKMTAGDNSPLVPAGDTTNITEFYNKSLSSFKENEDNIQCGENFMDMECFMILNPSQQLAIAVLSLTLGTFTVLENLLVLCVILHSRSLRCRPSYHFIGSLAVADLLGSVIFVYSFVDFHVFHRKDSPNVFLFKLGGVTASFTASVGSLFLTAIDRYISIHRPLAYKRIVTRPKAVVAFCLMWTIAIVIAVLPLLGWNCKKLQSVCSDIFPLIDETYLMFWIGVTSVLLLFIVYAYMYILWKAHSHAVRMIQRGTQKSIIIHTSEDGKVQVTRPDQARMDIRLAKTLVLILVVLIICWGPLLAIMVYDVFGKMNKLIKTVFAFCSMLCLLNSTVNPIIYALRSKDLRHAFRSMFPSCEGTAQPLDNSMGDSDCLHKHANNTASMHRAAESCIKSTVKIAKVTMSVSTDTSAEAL", "assay": "Agonist-stimulated [35S]GTPγS binding in spinal cord membranes", "assay_type": "biochemical, mice"}, "CB1 receptor [2]": {"biological_target": "T1, CB1 receptor", "assay": "[3H]WIN55,212-2 autoradiography in brain sections after subchronic treatment", "assay_type": "binding", "settings": "FAAH−/− mice treated subchronically; 1 nM radioligand; mean ± SEM"}, "FAAH−/− and FAAH+/+ mice [3]": {"test_system": "FAAH−/− and FAAH+/+ mice", "settings": "FAAH−/− mice ref Cravatt et al., 2001; cited from earlier work"}, "FAAH−/− and FAAH+/+ mice [4]": {"test_system": "FAAH−/− and FAAH+/+ mice", "assay": "Rimonabant-precipitated withdrawal", "assay_type": "in vivo", "settings": "after subchronic 50 mg/kg twice daily 5.5 days; rimonabant 10 mg/kg i.p."}, "CB1 receptor [5]": {"biological_target": "T1, CB1 receptor", "assay_type": "biochemical, mice"}, "[6]": {"assay": "THC blood and brain levels, single bolus vs cumulative dosing", "assay_type": "in vivo", "settings": "C57Bl/6J mice, mean ± SEM"}, "FAAH−/− and FAAH+/+ mice [7]": {"test_system": "FAAH−/− and FAAH+/+ mice", "assay": "Tail withdrawal", "assay_type": "in vivo"}, "FAAH−/− and FAAH+/+ mice [8]": {"test_system": "FAAH−/− and FAAH+/+ mice", "assay": "Hypothermia", "assay_type": "in vivo"}, "FAAH−/− and FAAH+/+ mice [9]": {"test_system": "FAAH−/− and FAAH+/+ mice", "assay": "Bar test for catalepsy, cumulative dose-response", "assay_type": "in vivo"}, "[10]": {"settings": "FAAH−/− mice treated subchronically, WIN55,212-2 10 μM, mean ± SEM"}, "[11]": {"settings": "FAAH+/+ mice, naive, cumulative dosing"}, "[12]": {"settings": "FAAH−/− mice, naive, cumulative dosing"}, "[13]": {"settings": "Table 3, FAAH−/− mice, subchronic AEA"}, "[14]": {"settings": "Table 3, FAAH−/− mice, subchronic THC"}, "[15]": {"settings": "Table 3, FAAH−/− mice, subchronic vehicle"}},
  "data": [
    {"smiles": "CCCCC/C=C\\C/C=C\\C/C=C\\C/C=C\\CCCC(=O)NCCO", "note": "[AEA, N-arachidonoyl ethanolamine]", "values": [
      {"measurement": "Emax of agonist-stimulated [35S]GTPγS binding", "setting": "CB1 receptor [1]; spinal cord membranes from AEA-treated FAAH−/− mice", "value": "35 ± 3.3", "unit": "% Stim"},
      {"measurement": "Emax as percent of that obtained in vehicle-treated mice", "setting": "CB1 receptor [1]; spinal cord membranes from AEA-treated mice", "value": 104, "unit": "%"},
      {"measurement": "Emax of agonist-stimulated [35S]GTPγS binding", "setting": "CB1 receptor [1]; spinal cord membranes from THC-treated FAAH−/− mice", "value": "25 ± 2.3", "unit": "% Stim"},
      {"measurement": "Emax as percent of that obtained in vehicle-treated mice", "setting": "CB1 receptor [1]; spinal cord membranes from THC-treated mice", "value": 75, "unit": "%"},
      {"measurement": "Emax of agonist-stimulated [35S]GTPγS binding", "setting": "CB1 receptor [1]; spinal cord membranes from vehicle-treated FAAH−/− mice", "value": "34 ± 1.6", "unit": "% Stim"},
      {"measurement": "Specific [3H]WIN55,212-2 binding, Caudate-Putamen", "setting": "CB1 receptor [2]", "value": "0.95 ± 0.09", "unit": "pCi/g"},
      {"measurement": "Specific [3H]WIN55,212-2 binding, Cerebellum", "setting": "CB1 receptor [2]", "value": "1.69 ± 0.18", "unit": "pCi/g"},
      {"measurement": "Specific [3H]WIN55,212-2 binding, Globus Pallidus", "setting": "CB1 receptor [2]", "value": "2.31 ± 0.18", "unit": "pCi/g"},
      {"measurement": "Specific [3H]WIN55,212-2 binding, Hippocampus", "setting": "CB1 receptor [2]", "value": "0.88 ± 0.06", "unit": "pCi/g"},
      {"measurement": "Specific [3H]WIN55,212-2 binding, PAG", "setting": "CB1 receptor [2]", "value": "0.57 ± 0.06", "unit": "pCi/g"},
      {"measurement": "Specific [3H]WIN55,212-2 binding, Substantia Nigra", "setting": "CB1 receptor [2]", "value": "3.11 ± 0.29", "unit": "pCi/g"},
      {"measurement": "Persistence of antinociception, catalepsy, locomotor inhibition and hypothermia", "setting": "FAAH−/− and FAAH+/+ mice [3]", "value": "6 to 8", "unit": "h"},
      {"measurement": "Rimonabant precipitated head twitches / headshakes", "setting": "FAAH−/− and FAAH+/+ mice [4]", "value": "no changes"},
      {"measurement": "WIN55,212-2-stimulated [35S]GTPγS binding vs vehicle control (study 1, Figure 5)", "setting": "CB1 receptor [5]; FAAH+/+ and FAAH−/− mice, caudate putamen, hippocampus, cerebellum", "value": "not different from vehicle control"},
      {"measurement": "Net WIN55,212-2-stimulated [35S]GTPγS binding, Caudate-Putamen", "setting": "CB1 receptor [5]; [10]", "value": "152 ± 28", "unit": "nCi/g"},
      {"measurement": "Net WIN55,212-2-stimulated [35S]GTPγS binding, Cerebellum", "setting": "CB1 receptor [5]; [10]", "value": "178 ± 23", "unit": "nCi/g"},
      {"measurement": "Net WIN55,212-2-stimulated [35S]GTPγS binding, Globus Pallidus", "setting": "CB1 receptor [5]; [10]", "value": "639 ± 60", "unit": "nCi/g"},
      {"measurement": "Net WIN55,212-2-stimulated [35S]GTPγS binding, Hippocampus", "setting": "CB1 receptor [5]; [10]", "value": "132 ± 24", "unit": "nCi/g"},
      {"measurement": "Net WIN55,212-2-stimulated [35S]GTPγS binding, PAG", "setting": "CB1 receptor [5]; [10]", "value": "79 ± 19", "unit": "nCi/g"},
      {"measurement": "Net WIN55,212-2-stimulated [35S]GTPγS binding, Substantia Nigra", "setting": "CB1 receptor [5]; [10]", "value": "592 ± 49", "unit": "nCi/g"}
    ]},
    {"smiles": "CCCCCc1cc(O)c2c(c1)OC(C)(C)[C@@H]1CCC(C)=C[C@@H]21", "note": "[THC, Δ^9-tetrahydrocannabinol]", "values": [
      {"measurement": "Brain THC level, single bolus", "setting": "[6]; THC 3 mg/kg", "value": "77 ± 5", "unit": "ng/mL"},
      {"measurement": "Brain THC level, single bolus", "setting": "[6]; THC 10 mg/kg", "value": "212 ± 19", "unit": "ng/mL"},
      {"measurement": "Brain THC level, cumulative dosing", "setting": "[6]; THC 30 mg/kg cumulative", "value": "641 ± 134", "unit": "ng/mL"},
      {"measurement": "Brain THC level, single bolus", "setting": "[6]; THC 30 mg/kg", "value": "520 ± 79", "unit": "ng/mL"},
      {"measurement": "Brain THC level, cumulative dosing", "setting": "[6]; THC 56 mg/kg cumulative", "value": "1294 ± 178", "unit": "ng/mL"},
      {"measurement": "Brain THC level, single bolus", "setting": "[6]; THC 56 mg/kg", "value": "1072 ± 156", "unit": "ng/mL"},
      {"measurement": "Antinociception ED50 (95% CI)", "setting": "FAAH−/− and FAAH+/+ mice [7]; [11]", "value": "19 (14-26) mg/kg"},
      {"measurement": "Antinociception ED50 (95% CI)", "setting": "FAAH−/− and FAAH+/+ mice [7]; [12]", "value": "22 (17-30) mg/kg"},
      {"measurement": "Antinociception maximum effect ± SEM", "setting": "FAAH−/− and FAAH+/+ mice [7]; FAAH−/− mice, subchronic THC 50 mg/kg twice daily 5.5 days, @ 300 mg/kg", "value": "25 + 4%MPE @ 300 mg/kg"},
      {"measurement": "Antinociception ED50 (95% CI)", "setting": "FAAH−/− and FAAH+/+ mice [7]; [13]", "value": "55 (44-69) mg/kg"},
      {"measurement": "Antinociception ED50 (95% CI)", "setting": "FAAH−/− and FAAH+/+ mice [7]; [14]", "value": "76 (58-99) mg/kg"},
      {"measurement": "Antinociception ED50 (95% CI)", "setting": "FAAH−/− and FAAH+/+ mice [7]; [15]", "value": "20 (16-24) mg/kg"},
      {"measurement": "Rimonabant precipitated head twitches / headshakes", "setting": "FAAH−/− and FAAH+/+ mice [4]", "value": "significant increases"},
      {"measurement": "Hypothermia ED50 (95% CI)", "setting": "FAAH−/− and FAAH+/+ mice [8]; [11]", "value": "18 (15-22) mg/kg"},
      {"measurement": "Hypothermia ED50 (95% CI)", "setting": "FAAH−/− and FAAH+/+ mice [8]; FAAH+/+ mice, subchronic THC", "value": "109 (62- 190) mg/kg"},
      {"measurement": "Hypothermia ED50 (95% CI)", "setting": "FAAH−/− and FAAH+/+ mice [8]; [12]", "value": "22 (16-32) mg/kg"},
      {"measurement": "Hypothermia ED50 (95% CI)", "setting": "FAAH−/− and FAAH+/+ mice [8]; FAAH−/− mice, subchronic AEA", "value": "133 (106- 166) mg/kg"},
      {"measurement": "Hypothermia ED50 (95% CI)", "setting": "FAAH−/− and FAAH+/+ mice [8]; FAAH−/− mice, subchronic THC", "value": "224 (190- 266) mg/kg"},
      {"measurement": "Hypothermia ED50 (95% CI)", "setting": "FAAH−/− and FAAH+/+ mice [8]; [13]", "value": "50 (40-55) mg/kg"},
      {"measurement": "Hypothermia ED50 (95% CI)", "setting": "FAAH−/− and FAAH+/+ mice [8]; [14]", "value": "32 (27-38) mg/kg"},
      {"measurement": "Hypothermia ED50 (95% CI)", "setting": "FAAH−/− and FAAH+/+ mice [8]; [15]", "value": "17 (15-20) mg/kg"},
      {"measurement": "Catalepsy ED50 (95% CI)", "setting": "FAAH−/− and FAAH+/+ mice [9]; [11]", "value": "18 (13-25) mg/kg"},
      {"measurement": "Catalepsy maximum effect", "setting": "FAAH−/− and FAAH+/+ mice [9]; FAAH+/+ mice, subchronic THC, @ 300 mg/kg", "value": 62, "unit": "% @ 300 mg/kg"},
      {"measurement": "Catalepsy ED50 (95% CI)", "setting": "FAAH−/− and FAAH+/+ mice [9]; [12]", "value": "21 (15-28) mg/kg"},
      {"measurement": "Catalepsy maximum effect", "setting": "FAAH−/− and FAAH+/+ mice [9]; FAAH−/− mice, subchronic AEA, @ 300 mg/kg", "value": 25, "unit": "% @ 300 mg/kg"},
      {"measurement": "Catalepsy maximum effect", "setting": "FAAH−/− and FAAH+/+ mice [9]; FAAH−/− mice, subchronic THC, @ 300 mg/kg", "value": 67, "unit": "% @ 300 mg/kg"},
      {"measurement": "Catalepsy ED50 (95% CI)", "setting": "FAAH−/− and FAAH+/+ mice [9]; [13]", "value": "62 (56-69) mg/kg"},
      {"measurement": "Catalepsy maximum effect", "setting": "FAAH−/− and FAAH+/+ mice [9]; Table 3, FAAH−/− mice, subchronic THC, @ 150 mg/kg", "value": 50, "unit": "% @ 150 mg/kg"},
      {"measurement": "Catalepsy ED50 (95% CI)", "setting": "FAAH−/− and FAAH+/+ mice [9]; [15]", "value": "16 (13-19) mg/kg"}
    ]}
  ]
}
